Measured values taken from US11634397B2, “Process and intermediates for the preparation of Fluensulfone” (ADAMA MAKHTESHIM LTD., priority 2018, dated 2023).

Assay: Solubility of 2-mercaptothiazole estimated in a variety of solvents at room temperature
Type: physicochemical
Settings: stirred overnight
Method: The solubility of 2-mercaptothiazole was estimated in a variety of solvents at room temperature. Large amount of 2-mercaptothiazole was added to the tested solvent. The mixture was stirred overnight. The residual solid was removed by filtration. Then the solution was analyzed by quantitative analysis vs. analytical standard to determine the concentration of the 2-mercaptothiazole.

Sc1nccs1 [2-mercaptothiazole]
Solubility of 2-mercaptothiazole (solvent 1,2-dichlorobenzene): 1.91 wt %
Solubility of 2-mercaptothiazole (solvent 1,2-dichloroethane): 8.43 wt %
Solubility of 2-mercaptothiazole (solvent CPME (cyclopentyl methyl ether)): 6.5 wt %
Solubility of 2-mercaptothiazole (solvent IBN (iso-butyronitrile)): 20.2 wt %
Solubility of 2-mercaptothiazole (solvent IPAc (isopropyl acetate)): 14.8 wt %
Solubility of 2-mercaptothiazole (solvent MCB (mono-chlorobenzene)): 2.4 wt %
Solubility of 2-mercaptothiazole (solvent NBN (n-butyronitrile)): 28.9 wt %
Solubility of 2-mercaptothiazole (solvent pentanol): 19.1 wt %
Solubility of 2-mercaptothiazole (solvent toluene): 2.2 wt %
